Experiment [1] concerns Ras expressing tumors (R). Briefly: growth of tumors subcutaneously grafted in Nude mice. The class given is in vivo. The conditions noted are these: administered to grafted mice, FIG. 4. The source says:
The different tumors derived from three independent myofibroblast cell lines (J2A, H1 or I1) were subcutaneously grafted in Nude mice. […] Since pantetheinase activity releases pantothenate and cysteamine in vivo, we tested the effect of these compounds on in vitro and in vivo growth.

Experiment [2] relates to CoA levels. Briefly: coenzyme A levels in tumors. The experiment is classed as in vivo. The conditions noted are these: administration to mice bearing R tumors. An excerpt:
(§1) Since pantetheinase hydrolyses pantetheine into pantothenate and cysteamine, we searched for more specific actions. We first focused on pantothenate which could be detected by LC-MS analysis. […] Accordingly, we found some significant variations in the levels of various metabolites involved in the regulation of the TCA cycle.

For experiment [3], the system named is various metabolites analyzed by LC-MS. In words: LC-MS analysis of tumor metabolites. The class given is in vivo. The conditions noted are these: administration to tumor-bearing mice.
From the text: as §1

The subject of experiment [4] is myofibroblast cell lines (J2A, H1 or I1). In words: in vitro growth of Ras-transfected myofibroblast cell lines. The class given is cell-based, mouse. The conditions noted are these: data not shown. The source says: Given the slow rate of tumor development and the rare emergence of STS in Vnn1+/+ mice, we developed new transplantable STS models. The different tumors derived from three independent myofibroblast cell lines (J2A, H1 or I1) were subcutaneously grafted in Nude mice. […] Since pantetheinase activity releases pantothenate and cysteamine in vivo, we tested the effect of these compounds on in vitro and in vivo growth.

Experiment [5] relates to collagen I or caveolin I genes. In words: qRT-PCR of differentiation genes in enriched tumor cells depleted of CD45+ cells. The conditions noted are these: cysteamine-treated R tumor cells. The class given is in vivo, mice. An excerpt:
We then performed a similar analysis using RNA extracted from enriched R, cysteamine-treated R and VR tumor cells depleted of CD45+ hematopoietic cells. […] Therefore, Vnn1 expression is associated with a differentiated grade of tumors which is not recapitulated by CEA administration.
A general note: In qPCR the cycle at which signal appears reflects the starting amount.

The subject of experiment [6] is GSH levels. In words: GSH levels in tumor tissue extracts. The experiment is classed as in vivo. The conditions noted are these: administration to tumor-bearing mice, data not shown.
From the text: as §1

“Also recorded” adds a separate entry of the source.

Consider `NCCS` [cysteamine, 2-aminoethanethiol], for which the “tumor growth in grafted mice” value in experiment [1] is given as “inhibits tumor growth; also recorded: reduced the growth”. Further, the “CoA levels in tumors” value in experiment [2] is “only moderately enhanced”. Moreover, the “impact on the various metabolites analyzed by LC-MS” value in experiment [3] is listed as “could not detect a significant impact”. For the same compound, the “growth of cell lines in vitro” value in experiment [4] was “reduced the growth of all cell lines”. The “expression of collagen I or caveolin I genes” value in experiment [5] is on record as “not able to induce the expression”. In addition, in experiment [6], the “GSH levels in tissue extracts” value was “reduction in GSH levels”.
As for `CC(C)(CO)[C@@H](O)C(=O)NCCC(=O)O` [pantothenate, 3-[(2R)-(2,4-Dihydroxy-3,3-dimethylbutanoyl)amino]propanoic acid], in experiment [4], the “growth of cell lines in vitro” value is “no effect”.

These data come from patent US11579147B2, “Use of VNN1 as a biomarker and a therapeutic target in sarcomas” (INSERM (Institut National de la Santé et de la Recherche …, priority 2017, dated 2023).
